This note sets out measurements from US9096532B2, “Pyrazole inhibitors of COX-2 and sEH” (The Regents of the University of California, priority 2010, dated 2015).

Data set [1] concerns MMP activity in PC-3 cells. Put plainly: Matrix metalloproteinase (MMP) assay by zymography, PC-3 cells. In kind it is cell-based. The note with it: FIG. 17 left. The method, then: (§1) MMP activity in PC-3 and HUVEC cells were carried out by zymography (J Vis Exp, e2445). […] After that, the gels were incubated at renaturing buffer for 30 min, followed with incubation at zymography developing buffer for 30 min at room temperature, and replaced with fresh developing buffer and incubated at 37° C. overnight. The gels were stained by Coomassie blue, and images were recorded and analyzed by NIH Image J software.

Data set [2] deals with T1, 5-LOX (Homo sapiens, UniProt P09917).
T1 sequence (P09917 1-674): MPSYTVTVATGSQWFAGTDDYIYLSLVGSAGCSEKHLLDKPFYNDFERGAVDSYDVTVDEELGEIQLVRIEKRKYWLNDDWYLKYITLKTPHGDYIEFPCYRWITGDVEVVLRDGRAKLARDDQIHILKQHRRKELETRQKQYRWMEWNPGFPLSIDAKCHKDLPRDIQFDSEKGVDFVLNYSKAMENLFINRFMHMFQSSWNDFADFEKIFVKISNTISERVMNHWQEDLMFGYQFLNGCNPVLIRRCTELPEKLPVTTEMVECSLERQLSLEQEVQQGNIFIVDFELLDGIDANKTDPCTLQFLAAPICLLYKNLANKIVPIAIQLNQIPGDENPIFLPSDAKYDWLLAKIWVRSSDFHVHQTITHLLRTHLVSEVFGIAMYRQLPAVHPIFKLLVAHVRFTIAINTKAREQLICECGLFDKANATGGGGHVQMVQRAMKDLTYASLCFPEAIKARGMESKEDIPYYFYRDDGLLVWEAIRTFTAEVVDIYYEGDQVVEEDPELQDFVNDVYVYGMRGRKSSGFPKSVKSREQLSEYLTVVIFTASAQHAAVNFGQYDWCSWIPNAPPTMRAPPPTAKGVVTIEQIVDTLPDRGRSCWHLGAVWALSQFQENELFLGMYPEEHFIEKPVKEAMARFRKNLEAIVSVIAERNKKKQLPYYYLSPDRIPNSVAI
The experiment in a line: Potency against 5-LOX. It counts as biochemical. The note with it: compared with celecoxib.

Data set [3] concerns mouse aortic ring vessel sprouting. The experiment in a line: Mouse aortic ring assay. The conditions noted are these: FIG. 13. In kind it is cell-based. The method, then: Mouse aorta ring assay was carried out using a slightly modified method described by Bellacen and Lewis (J Vis Exp, e1564). The 48-well plates were coated with 50 μL per well growth-factor reduced Matrigel at 37° C. for 30 min. The aorta of C57BL/6 mice was harvested, washed with cold serum-free F-12K medium 5-6 times, and cut to ˜1 mm length pieces. The aorta ring was put in the center area of Matrigel-coated 48-well plates, then another 100 μL Matrigel was added into each well and incubated at 37° C. for another 30 min. Complete endothelial EGM-2 culture medium (500 μL per well) with or without test compounds was added into each well, incubated in 37° C. incubators for 6-12 days, microscope image was recorded and analyzed by NIH Image J software.

A short description of data set [4]: Pharmacokinetics in rats by oral administration.
In data set [5] the test system is cancer cells (H-1, PC-3, A375, Met-1). Put plainly: Cancer cell proliferation assay (MTT). In kind it is cell-based. The conditions noted are these: times higher than in endothelial cells, FIG. 14. The method, then:
Cells (HUVEC, H-1, PC-3, A375, Met-1) were seeded into 96-well plates at 1.0-1.5×10^3 cells per well in 100 μL complete medium. After 24 h, the medium was replaced with fresh complete medium containing test compounds and the cells were incubated for another 72 hours. Cell viability was assessed by MTT assay (Sigma-Aldrich).

In data set [6] the target is T2, ovine COX-1 (Ovis aries, UniProt P05979).
T2 construct: purchased Cayman Chemical 700100
T2 sequence (P05979 25-600): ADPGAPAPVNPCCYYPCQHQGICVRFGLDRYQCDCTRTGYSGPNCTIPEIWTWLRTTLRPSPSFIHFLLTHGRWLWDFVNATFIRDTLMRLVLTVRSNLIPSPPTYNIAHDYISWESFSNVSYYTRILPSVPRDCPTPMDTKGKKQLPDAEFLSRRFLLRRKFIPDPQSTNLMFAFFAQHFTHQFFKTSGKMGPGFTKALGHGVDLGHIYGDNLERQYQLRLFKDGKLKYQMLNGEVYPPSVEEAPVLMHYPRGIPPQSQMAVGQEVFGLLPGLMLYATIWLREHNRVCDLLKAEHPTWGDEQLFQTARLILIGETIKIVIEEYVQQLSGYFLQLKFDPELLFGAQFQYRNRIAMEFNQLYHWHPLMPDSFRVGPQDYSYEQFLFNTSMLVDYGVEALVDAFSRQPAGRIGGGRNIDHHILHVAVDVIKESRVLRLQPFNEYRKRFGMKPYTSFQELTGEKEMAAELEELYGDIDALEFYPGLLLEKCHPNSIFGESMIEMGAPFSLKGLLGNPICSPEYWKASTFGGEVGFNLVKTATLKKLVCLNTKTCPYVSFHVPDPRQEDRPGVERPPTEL
The experiment in a line: Cyclooxygenase inhibition assay (COX Fluorescent Inhibitor Screening Assay Kit), COX-1. It counts as biochemical. Here is the method: (§2) Stock solutions of test compounds are dissolved in a minimum volume of DMSO. 10 μl of various concentrations of the test compound solutions, e.g., [I]final between 0.01 and 100 μM, are added to a series of supplied reaction buffer solutions (150 μl, 100 mM Tris-HCl, pH 8.0) with either COX-1 or COX-2 (10 μl) enzyme in the presence of Heme (10 μl) and a fluorometric substrate (10 μl). The reactions are initiated by quickly adding 10 μl of arachidonic acid solution and then incubating the system for two minutes at room temperature. […] The intensity of this fluorescence is proportional to the amount of resorufin, which is proportional to the amount of PGG2 present in the well during the incubation. Percent inhibition is calculated by comparison from the 100% initial activity sample value (no inhibitor).
as §2, with “compounds were” for “compounds are”, “μM, were” for “μM, are”, “reactions were” for “reactions are”, “then incubated” for “then incubating the system”, “inhibition was” for “inhibition is”

Data set [7] relates to MMP activity in HUVEC cells. Put plainly: Matrix metalloproteinase (MMP) assay by zymography, HUVEC cells. In kind it is cell-based, human. The conditions noted are these: FIG. 17 right. The method, then: as §1
[8] abbreviates: 21i in comparison with 21j, rats oral 1 mg/kg.
Setting [9] is: rats, oral administration at 1 mg/kg (n = 4), blood.

What is called AUC is the area under the concentration-time curve, a measure of exposure. For orientation: Cmax means the highest concentration seen after dosing. Broadly, the Tmax is the time from dosing to the highest level. In general, IC50 refers to the midpoint of a concentration-inhibition curve. A low value points to greater potency in that assay. What is called inhibition is the relative decrease from the control value, in per cent. For `NS(=O)(=O)c1ccc(-n2nc(CCCNC(=O)Nc3ccc(C(F)(F)F)cc3)cc2-c2ccccc2)cc1` [Compound 21i, 4-(5-Phenyl-3-{3-[3-(4-trifluoromethyl-phenyl)-ureido]-propyl}-pyrazol-1-yl)-benzenesulfonamide], the “MMP activity, in words” value in data set [1] is reported as “no effect on MMP activity”. In data set [2], the “Potency against 5-LOX, in words” value is “comparable with celecoxib”. The “Vessel sprouting in mouse aortic ring assay, in words” value in data set [3] is recorded as “inhibited vessel sprouting in mouse aortic ring assay in a dose-dependent manner”. For the same molecule, in data set [4] (setting [8]), the “Higher AUC in rats” value is reported as 2 fold and the “Higher Cmax in rats” value stood at 2 fold. Moreover, in data set [4] (setting [9]), the area under the curve (AUC) was 2.764 ± 0.804 µM·h, the concentration peaked (Cmax) at 415 ± 139 nM, the time of peak concentration (Tmax) is recorded as 1.5 ± 0.6 h and the t1/2 was found to be 12.9 ± 3.8 h. Also, the “IC50 in cancer cells relative to endothelial cells” value in data set [5] is given as 5-10 times. The molecule also yielded an IC50 in data set [6] of over 100 µM. The inhibition at 100 µM in data set [6] (read-out: COX-1 (% inhibition)) was found to be 22.7%. For the same molecule, the “MMP activity, in words” value in data set [7] is given as “no effect on MMP activity”.
